Laboratory results from patent publication US8377944B2, “Thienopyrimidine derivatives” (ASKA Pharmaceutical Co., Ltd., priority 2005, dated 2013).

Test system: model of urethral obstruction with the guinea pigs
Assay: Dysuria pathological model (urethral obstruction), cystometry
Assay type: in vivo, guinea pig
Details: for Frequency of non-voiding contraction, pre-administration / Residual urine volume, pre-administration: baseline before administration; for Frequency of non-voiding contraction, pre-administration / Residual urine volume, pre-administration / Frequency of non-voiding contraction, post-administration / Residual urine volume, post-administration: mean; for Frequency of non-voiding contraction, post-administration / Residual urine volume, post-administration: up to 30 min after administration; for Frequency of non-voiding contraction, quantitative change / Residual urine volume, quantitative change: post minus pre
Procedure: (3) Investigation of PDE9 Inhibitory Activity on Dysuria Pathological Model
Three to four weeks old female Hartley strain guinea pigs (Nippon SLC) were laparotomized under anesthesia with pentobarbital (30 mg/kg i.p.), and a polyethylene tube of 1.4 mm in width and 2.0 mm in inner diameter was placed in each guinea pig's urethra to the distal side by 1-2 mm from the bladder neck. After closing the incision, the guinea pigs were reared for at least 3 weeks to provide a model of urethral obstruction with the guinea pigs in which rise in intravesical pressure not accompanied by voiding (non-voiding contraction) and residual urine were induced.
The model was catheterized under anesthesia with urethane (1 g/kg i.p.) at the apex of urinary bladder and right jugular vein for cystometrography and intravenous administration, respectively. The other end of the bladder catheter was connected to a pressure transducer and infusion pump through three way stopcock. By means of the infusion pump, physiological saline was continuously infused into the bladder at a rate of 0.4 mL/min to induce micturition reflex. Immediately after the micturition reflex was induced, the physiological saline infusion into the bladder was stopped. The intravesical pressure at the time the micturition occurred was measured with the pressure transducer and the cystometrogram was recorded with pen recorder. The urine voided was collected with a disposable type weighing dish to measure its weight. Further the physiological saline remained in the bladder was sucked with syringe through the bladder catheter to measure the residual urine volume. Multiple operation cycles (normally 4 times) of suspending physiological saline infusion when micturition reflex was induced and resuming the infusion after about 1 minute to induce next micturition reflex, were repeated to stabilize the voiding response.
Also the frequency of non-voiding contraction occurred during the operations was measured. The respective mean values of frequency of non-voiding contraction and residual urine volume in the experiment using several guinea pigs are shown in the following Table B.

Compound | Frequency of non-voiding contraction, pre-administration (1 mg/kg i.v.) [count/min] | Residual urine volume, pre-administration (1 mg/kg i.v.) [mL] | Frequency of non-voiding contraction, post-administration (1 mg/kg i.v.) [count/min] | Frequency of non-voiding contraction, pre-administration (10 mg/kg i.v.) [count/min] | Residual urine volume, pre-administration (10 mg/kg i.v.) [mL] | Frequency of non-voiding contraction, post-administration (10 mg/kg i.v.) [count/min] | Frequency of non-voiding contraction, pre-administration (0.3 mg/kg i.v.) [count/min] | Residual urine volume, pre-administration (0.3 mg/kg i.v.) [mL] | Frequency of non-voiding contraction, post-administration (0.3 mg/kg i.v.) [count/min] | Frequency of non-voiding contraction, pre-administration (3 mg/kg i.v.) [count/min] | Residual urine volume, pre-administration (3 mg/kg i.v.) [mL] | Frequency of non-voiding contraction, post-administration (3 mg/kg i.v.) [count/min] | Residual urine volume, post-administration (10 mg/kg i.v.) [mL] | Residual urine volume, post-administration (0.3 mg/kg i.v.) [mL] | Residual urine volume, post-administration (3 mg/kg i.v.) [mL] | other results
Cc1c(C(=O)O)sc2nc(Cc3cccs3)[nH]c(=O)c12 [Example 2, 5-Methyl-4-oxo-2-(thiophen-2-ylmethyl)-3,4-dihydrothieno[2,3-d]pyrimidine-6-carboxylic acid] | 0.91 | 1.27 | 0.47 | 0.91 | 1.27 | 0.78 |  |  |  |  |  |  |  |  |  | 
Cc1c(C(=O)O)sc2nc(Cc3cccc(Cl)c3)[nH]c(=O)c12 [Example 10, 2-(3-Chlorobenzyl)-5-methyl-4-oxo-3,4-dihydrothieno-[2,3-d]pyrimidine-6-carboxylic acid] |  |  |  | 1.16 |  | 0.60 | 1.16 | 0.95 | 0.80 | 1.16 | 0.95 | 0.49 | 0.95 |  |  | 
Cc1c(C(=O)O)sc2nc(Cc3ccc(Cl)c(Cl)c3)[nH]c(=O)c12 [Example 36, 2-(3,4-Dichlorobenzyl)-5-methyl-4-oxo-3,4-dihydrothieno-[2,3-d]pyrimidine-6-carboxylic acid] | 0.96 | 0.82 | 0.79 | 1.11 | 1.06 | 0.64 |  |  |  | 1.16 | 1.33 | 0.77 | 0.64 |  |  | Residual urine volume, post-administration (1 mg/kg i.v.): 0.86 mL
O=C(O)c1cc2c(=O)[nH]c(Cc3cccc(Cl)c3)nc2s1 [Example 104, 2-(3-Chlorobenzyl)-4-oxo-3,4-dihydrothieno[2,3-d]pyrimidine-6-carboxylic acid] |  |  |  | 1.57 | 1.68 | 0.83 | 1.08 | 1.54 | 0.55 | 1.44 | 1.37 | 0.78 | 0.62 | 1.02 | 0.88 | Frequency of non-voiding contraction, quantitative change (0.3 mg/kg i.v.): −0.53 count/min; Residual urine volume, quantitative change (0.3 mg/kg i.v.): -0.52 mL; Frequency of non-voiding contraction, quantitative change (3 mg/kg i.v.): −0.66 count/min; Residual urine volume, quantitative change (3 mg/kg i.v.): -0.49 mL; Frequency of non-voiding contraction, quantitative change (10 mg/kg i.v.): −0.74 count/min; Residual urine volume, quantitative change (10 mg/kg i.v.): -1.06 mL
Cc1c(C(=O)O)sc2nc(Cc3cccc(Cl)c3)[nH]c(=S)c12 [Example 112, 2-(3-Chlorobenzyl)-5-methyl-4-thioxo-3,4-dihydrothieno-[2,3-d]pyrimidine-6-carboxylic acid] |  |  |  | 1.12 | 1.02 | 0.59 | 1.12 |  | 1.02 | 1.12 | 1.02 | 0.76 | 0.48 | 0.91 | 0.27 | 
